{
  "source": "paper PMC7022718",
  "about": "“Composition and Insecticidal Activity of Essential Oil of Bacopa caroliniana and Interactive Effects of Individual Compounds on the Activity” (Insects, 2019)",
  "data": [
    {"test_system": "T1, acetylcholine esterase (AChE), crude, from rice weevil", "T1 construct": "gene ace1; native, unpurified; supernatant of whole adult homogenate in phosphate buffer pH 7.4 (8775 g, 20 min)", "assay": "Ellman colorimetric assay, […] nm", "type": "biochemical, Sitophilus oryzae", "details": "crude enzyme; acetylthiocholine iodide 2.5 mM, pH 7.4, 35 °C, 15 min preincubation, compound in ethanol", "units": {"AChE-IC50 (μL mL^-1)": "µL mL^−1"}, "values": [
      {"molecule": "CC1=CCC(C(C)C)=CC1", "note": "[γ-Terpinene]", "AChE-IC50 (μL mL^-1)": "> 500"},
      {"molecule": "C=CC(C)(O)CCC=C(C)C", "note": "(stereo not drawn) [Linalool]", "AChE-IC50 (μL mL^-1)": "44.33 ± 1.31"},
      {"molecule": "CC1=CCC(=C(C)C)CC1", "note": "[α-Terpinolene]", "AChE-IC50 (μL mL^-1)": "1.10 ± 0.17"},
      {"molecule": "CC12CCC(CC1)C(C)(C)O2", "note": "[1,8-Cineole]", "AChE-IC50 (μL mL^-1)": "31.13 ± 2.20"},
      {"molecule": "C=CC(O)CCCCC", "note": "(stereo not drawn) [1-Octen-3-ol]", "AChE-IC50 (μL mL^-1)": "14.82 ± 0.12"},
      {"molecule": "CC1=CCC(O)(C(C)C)CC1", "note": "(stereo not drawn) [4-Terpineol]", "AChE-IC50 (μL mL^-1)": "11.29 ± 0.02"},
      {"molecule": "C=C(C)C1CC=C(C)CC1", "note": "(stereo not drawn) [Limonene]", "AChE-IC50 (μL mL^-1)": "9.57 ± 1.37"},
      {"molecule": "C=CC(=C)CCC=C(C)C", "note": "[β-Myrcene]", "AChE-IC50 (μL mL^-1)": "> 500"},
      {"molecule": "C=C1CC[C@H]2O[C@]2(C)CC[C@@H]2[C@@H]1CC2(C)C", "note": "[Caryophyllene oxide]", "AChE-IC50 (μL mL^-1)": "> 500"},
      {"molecule": "C=C1CCC2CC1C2(C)C", "note": "(stereo not drawn) [β-Pinene]", "AChE-IC50 (μL mL^-1)": "> 500"},
      {"molecule": "C=CC(C)(O)CCC=C(C)CCC=C(C)C", "note": "(stereo not drawn) [Nerolidol]", "AChE-IC50 (μL mL^-1)": "331.24±21.55"},
      {"molecule": "Cc1ccc(C(C)C)cc1", "note": "[p-Cymene]", "AChE-IC50 (μL mL^-1)": "> 500"},
      {"molecule": "C=C1CCC2(C(C)C)CC12", "note": "(stereo not drawn) [Sabinene]", "AChE-IC50 (μL mL^-1)": "85.03 ± 0.20"},
      {"molecule": "CC1=CCC(C(C)(C)O)CC1", "note": "(stereo not drawn) [α-Terpineol]", "AChE-IC50 (μL mL^-1)": "18.39 ± 1.52"},
      {"molecule": "C=C1CC/C=C(\\C)CC[C@@H]2[C@@H]1CC2(C)C", "note": "[β-Caryophyllene]", "AChE-IC50 (μL mL^-1)": "> 500"},
      {"molecule": "CC1=CCC2CC1C2(C)C", "note": "(stereo not drawn) [α-Pinene]", "AChE-IC50 (μL mL^-1)": "1.81 ± 0.20"},
      {"molecule": "CC1=CC=C(C(C)C)CC1", "note": "[α-Terpinene]", "AChE-IC50 (μL mL^-1)": "> 500"},
      {"molecule": "CC(C)=CCCC(C)CCO", "note": "(stereo not drawn) [Citronellol]", "AChE-IC50 (μL mL^-1)": "86.08 ± 1.09"}
    ]}
  ]
}
